This is an account of results in US4122077A, “Somatostatin analogs” (American Home Products Corporation, priority 1977, dated 1978).

One experiment relates to growth hormone. In words: Suppression of growth hormone, glucagon and insulin (arginine-stimulated, nembutal rats): GH. The experiment is classed as in vivo. On the procedure: (§1) Albino male rats are arranged in three groups (nine rats/group) and injected i.p. with nembutal at 50mg/kg. 15 minutes after the nembutal injection they are injected s.c. according to group with (a) test compound, typically 10-2000 μg/kg.; (b) SRIF 200 μg/kg.; or (c) physiological saline. 10 minutes later 0.5 ml. of arginine (300 mg/ml., pH 7.2) is injected into the heart. The rats are decapitated 5 minutes after receiving the arginine, and the blood is collected into Trasylol-EDTA. Appropriate aliquots are then assayed for growth hormone, glucagon and insulin. […] Comparisons between control and experimental values are statistically evaluated by the analysis of variants method and statistical significance (p) at 0.05 or lower is used as the index of activity.

In a further experiment the test system is growth hormone (GH). In words: Suppression of growth hormone (duration of activity after sc injection). Type of experiment: in vivo, rats. On the procedure: A subcutaneous (sc) injection of peptide solubilized or suspended in physiological saline, is given to Charles River CD® nonfasted male rats. Matched saline control solution sc injected rats serve as control animals so that every experimental rat is paired with a control rat. The rats are kept in separate cages and 20 minutes before the end of the test time period they are given an intraperitoneal (i.p.) injection of Nembutal® at a dose of 50 mg/kg. Blood samples are obtained by cardiac puncture and the plasma separated for the radioimmunoassay of growth hormone (GH) concentration (ng/ml.). Time periods after injection of 2, 4, 5, and 6 hours are generally used to test the duration of the activity of the peptide to suppress circulating peripheral GH levels. Comparisons between control and experimental GH values at each time are evaluated by the Student "t" test and statistical significance (p) at the 0.05 level or lower is used as the index of activity.

Another experiment has as its system insulin. Description: Suppression of growth hormone, glucagon and insulin (arginine-stimulated, nembutal rats): insulin. Type of experiment: in vivo. As to conditions: arginine challenge. On the procedure: as §1
The subject of the next experiment is glucagon. In words: Suppression of growth hormone, glucagon and insulin (arginine-stimulated, nembutal rats): glucagon. Type of experiment: in vivo. As to conditions: arginine challenge. On the procedure: as §1
[1] abbreviates: 100 μg/kg. s.c., arginine challenge (table 5).
The mark [2] stands for this setting: 200 μg/kg. s.c., arginine challenge (table 5).

Structures are written as SMILES. “And” between values parts separate entries of the source, which are not always exact repeats. Equal entries are not always repeated. Where a SMILES comes first, the peptide text is derived from it. Bridges are numbered along the chain shown (N, C = ends). [ ]: non-standard residue; d: D form.

`C[C@@H](O)[C@@H]1NC(=O)[C@H](Cc2ccccc2)NC(=O)[C@H]([C@@H](C)O)NC(=O)[C@H](CCCCN)NC(=O)[C@@H](Cc2c[nH]c3ccccc23)NC(=O)[C@H](Cc2ccccc2)NC(=O)[C@H](Cc2ccccc2)NC(=O)[C@@H](Cc2c[nH]c3ccccc23)NC(=O)[C@@H](CCCNC(=N)N)NC(=O)[C@@H](N)CSSC[C@@H](C(=O)O)NC(=O)[C@H](CO)NC1=O` [D, L-Cysteinyl-D-Arginyl-D-Tryptophyl-L-Phenylalanyl-L-Phenylalanyl-D-Tryptophyl-L-Lysyl-L-Threonyl-L-Phenylalanyl-L-Threonyl-L-Seryl-L-Cysteine Cyclic (1-12)-Disulfide] (H-C[dR][dW]FF[dW]KTFTSC-OH; disulfide 1-12) displayed a GH in the experiment with growth hormone (setting [1]) of 21 ± 2. In the experiment with growth hormone (GH) (1000 μg/kg. sc, rats), the “GH, 2 Hours” value stood at 28 ± 3 ng/mL and the “GH, 4 Hours” value is 11 ± 2 ng/mL. The compound also came in with an Insulin in the experiment on insulin (100 μg/kg. s.c.) of 35 ± 2 μU/ml. In the experiment on glucagon (100 μg/kg. s.c.), this compound returned a Glucagon of 53 ± 9 pg/mL.
Regarding `C[C@@H](O)[C@@H]1NC(=O)[C@H](Cc2ccccc2)NC(=O)[C@H]([C@@H](C)O)NC(=O)[C@H](CCCCN)NC(=O)[C@@H](Cc2c[nH]c3ccccc23)NC(=O)[C@H](Cc2ccccc2)NC(=O)[C@H](Cc2ccccc2)NC(=O)[C@@H](Cc2c[nH]c3ccccc23)NC(=O)[C@@H](Cc2ccc(O)cc2)NC(=O)[C@@H](N)CSSC[C@@H](C(=O)O)NC(=O)[C@H](CO)NC1=O` [B, L-Cysteinyl-D-Tyrosyl-D-Tryptophyl-L-Phenylalanyl-L-Phenylalanyl-D-Tryptophyl-L-Lysyl-L-Threonyl-L-Phenylalanyl-L-Threonyl-L-Seryl-L-Cysteine Cyclic (1-12)-Disulfide] (H-C[dY][dW]FF[dW]KTFTSC-OH; disulfide 1-12), the GH in the experiment on growth hormone (10 μg/kg. s.c., 15 minutes after dose, arginine challenge) worked out at 125 ± 26 ng/mL; in the experiment on growth hormone (100 μg/kg. s.c., 15 minutes after dose, arginine challenge), 43 ± 7 ng/mL; in the experiment with growth hormone (500 μg/kg. s.c., 15 minutes after dose, arginine challenge) it was 38 ± 6 ng/mL. Besides, the “plasma growth hormone (GH) concentration, 2 Hr.” value in the experiment with growth hormone (GH) (1 mg/kg. sc, nonfasted male rats, 2 Hr. after injection) stood at 111 ± 14 ng/mL. For the same compound, the “plasma growth hormone (GH) concentration, 4 Hr.” value in the experiment on growth hormone (GH) (1 mg/kg. sc, nonfasted male rats, 4 Hr. after injection) worked out at 67 ± 14 ng/mL. For the same compound, the “plasma growth hormone (GH) concentration, 5 Hr.” value with growth hormone (GH) (1 mg/kg. sc, nonfasted male rats, 5 Hr. after injection) amounted to 151 ± 18 ng/mL. Besides, the “plasma growth hormone (GH) concentration, 2 Hr. (second column headed 2 Hr.)” value in the experiment with growth hormone (GH) (1 mg/kg. sc, nonfasted male rats, second 2 Hr. column of table 3) came out at 133 ± 34 ng/mL. Moreover, the Insulin with insulin (10 μg/kg. s.c.) was 162 ± 13 μU/ml; with insulin (100 μg/kg. s.c.) it was 170 ± 15 μU/ml; in the experiment with insulin (200 μg/kg. s.c.), 239 ± 17 μU/ml; with insulin (300 μg/kg. s.c.), 153 ± 9 μU/ml; in the experiment with insulin (500 μg/kg. s.c.), 116 ± 8 μU/ml. The Glucagon in the experiment on glucagon (10 μg/kg. s.c.) came out at 36 ± 4 pg/mL; with glucagon (100 μg/kg. s.c.) it was 5 ± 1 pg/mL; with glucagon (200 μg/kg. s.c.) it was 44 ± 9 pg/mL; with glucagon (300 μg/kg. s.c.), 38 ± 8 pg/mL; in the experiment with glucagon (500 μg/kg. s.c.) it was 18 ± 4 pg/mL.
Consider `C[C@@H](O)[C@@H]1NC(=O)[C@H](Cc2ccccc2)NC(=O)[C@H]([C@@H](C)O)NC(=O)[C@H](CCCCN)NC(=O)[C@@H](Cc2c[nH]c3ccccc23)NC(=O)[C@H](Cc2ccccc2)NC(=O)[C@H](Cc2ccccc2)NC(=O)[C@@H](Cc2c[nH]cn2)NC(=O)[C@@H](Cc2c[nH]cn2)NC(=O)[C@@H](N)CSSC[C@@H](C(=O)O)NC(=O)[C@H](CO)NC1=O` [E, L-Cysteinyl-D-Histidyl-D-Histidyl-L-Phenylalanyl-L-Phenylalanyl-D-Tryptophyl-L-Lysyl-L-Threonyl-L-Phenylalanyl-L-Threonyl-L-Seryl-L-Cysteine Cyclic (1-12)-Disulfide] (H-C[dH][dH]FF[dW]KTFTSC-OH; disulfide 1-12), for which, in the experiment with growth hormone (setting [2]), the GH is reported as 34 ± 3. Further, in the experiment with growth hormone (GH) (1000 μg/kg. sc, rats), the “GH, 2 Hours” value was determined as 36 ± 16 ng/mL and the “GH, 4 Hours” value was found to be 45 ± 10 ng/mL. Also, the Insulin in the experiment on insulin (200 μg/kg. s.c.) worked out at 182 ± 18 μU/ml. In the experiment on glucagon (200 μg/kg. s.c.), this compound gave a Glucagon of 29 ± 12 pg/mL.
As to `C[C@@H](O)[C@@H]1NC(=O)[C@H](CCCCN)NC(=O)[C@@H](Cc2c[nH]c3ccccc23)NC(=O)[C@H](Cc2ccccc2)NC(=O)[C@H](Cc2ccccc2)NC(=O)[C@@H](Cc2c[nH]c3ccccc23)NC(=O)[C@@H](Cc2ccc(O)cc2)NC(=O)[C@@H](N)CSSC[C@H](C(=O)O)NC(=O)[C@H](CO)NC(=O)[C@H]([C@@H](C)O)NC(=O)[C@H](Cc2ccccc2)NC1=O` [Compound I, L-Cysteinyl-D-Tyrosyl-D-Tryptophyl-L-Phenylalanyl-L-Phenylalanyl-D-Tryptophyl-L-Lysyl-L-Threonyl-L-Phenylalanyl-L-Threonyl-L-Seryl-D-Cysteine Cyclic (1-12)-Disulfide] (H-C[dY][dW]FF[dW]KTFTS[dC]-OH; disulfide 1-12), in the experiment with growth hormone (setting [2]), the GH was 57 ± 14. In the experiment on growth hormone (GH) (1000 μg/kg. sc, rats), the “GH, 2 Hours” value was determined as 49 ± 5 ng/mL and the “GH, 4 Hours” value came to 86 ± 11 ng/mL. The compound further showed an Insulin in the experiment on insulin (200 μg/kg. s.c.) of 236 ± 27 μU/ml. In the experiment on glucagon (200 μg/kg. s.c.), this compound yielded a Glucagon of 13 ± 2 pg/mL.
In the experiment with growth hormone (setting [1]), `C[C@@H](O)[C@@H]1NC(=O)[C@H](CCCCN)NC(=O)[C@@H](Cc2c[nH]c3ccccc23)NC(=O)[C@H](Cc2ccccc2)NC(=O)[C@H](Cc2ccccc2)NC(=O)[C@@H](CCCNC(=N)N)NC(=O)[C@@H](Cc2ccc(O)cc2)NC(=O)[C@@H](N)CSSC[C@H](C(=O)O)NC(=O)[C@H](CO)NC(=O)[C@H]([C@@H](C)O)NC(=O)[C@H](Cc2ccccc2)NC1=O` [F, L-Cysteinyl-D-Tryrosyl-D-Arginyl-L-Phenylalanyl-L-Phenylalanyl-D-Tryptophyl-L-Lysyl-L-Threonyl-L-Phenylalanyl-L-Threonyl-L-Seryl-D-Cysteine Cyclic (1-12)-Disulfide] (H-C[dY][dR]FF[dW]KTFTS[dC]-OH; disulfide 1-12) returned a GH of 11 ± 3. Also, in the experiment with growth hormone (GH) (1000 μg/kg. sc, rats), the “GH, 2 Hours” value was 113 ± 34 ng/mL and the “GH, 4 Hours” value stood at 99 ± 11 ng/mL. In the experiment on insulin (100 μg/kg. s.c.), this compound came in with an Insulin of 103 ± 24 μU/ml. This compound also yielded a Glucagon with glucagon (100 μg/kg. s.c.) of 24 ± 5 pg/mL.
In turn, `C[C@@H](O)[C@@H]1NC(=O)[C@H](Cc2ccccc2)NC(=O)[C@H]([C@@H](C)O)NC(=O)[C@H](CCCCN)NC(=O)[C@@H](Cc2c[nH]c3ccccc23)NC(=O)[C@H](Cc2ccccc2)NC(=O)[C@H](Cc2ccccc2)NC(=O)[C@@H](Cc2ccc(O)cc2)NC(=O)[C@@H](Cc2c[nH]cn2)NC(=O)[C@@H](N)CSSC[C@@H](C(=O)O)NC(=O)[C@H](CO)NC1=O` [C, L-Cysteinyl-D-Histidyl-D-Tyrosyl-L-Phenylalanyl-L-Phenylalanyl-D-Tryptophyl-L-Lysyl-L-Threonyl-L-Phenylalanyl-L-Threonyl-L-Seryl-L-Cysteine Cyclic (1-12)-Disulfide] (H-C[dH][dY]FF[dW]KTFTSC-OH; disulfide 1-12) had a GH with growth hormone (10 μg/kg. s.c., arginine challenge (table 5)) of 149 ± 23. Moreover, in the experiment with growth hormone (GH) (1000 μg/kg. sc, rats), the “GH, 2 Hours” value is 34 ± 1 ng/mL and the “GH, 4 Hours” value came out at 33 ± 2 ng/mL. The “GH, 5 Hours” value with growth hormone (GH) (1000 μg/kg. sc, rats, 5 hours) was 51 ± 8 ng/mL. Further, in the experiment with growth hormone (GH) (1000 μg/kg. sc, rats, 6 hours), the “GH, 6 Hours” value is 36 ± 3 ng/mL. In the experiment with growth hormone (GH) (1000 μg/kg. sc, rats, 7 hours), the “GH, 7 Hours” value is 37 ± 5 ng/mL. In the experiment on growth hormone (GH) (1000 μg/kg. sc, rats, 8 hours), the “GH, 8 Hours” value stood at 37 ± 6 ng/mL. Also, the Insulin with insulin (10 μg/kg. s.c.) came out at 252 ± 41 μU/ml. Besides, the Insulin in the experiment with insulin (200 μg/kg. s.c.) is 254 ± 31 μU/ml. and 273 ± 36 μU/ml. For the same compound, in the experiment on glucagon (10 μg/kg. s.c.), the Glucagon turned out to be 165 ± 13 pg/mL.
Consider `C[C@@H](O)[C@@H]1NC(=O)[C@H](Cc2ccccc2)NC(=O)[C@H]([C@@H](C)O)NC(=O)[C@H](CCCCN)NC(=O)[C@@H](Cc2c[nH]c3ccccc23)NC(=O)[C@H](Cc2ccccc2)NC(=O)[C@H](Cc2ccccc2)NC(=O)[C@@H](CCC(=O)O)NC(=O)[C@@H](Cc2ccc(O)cc2)NC(=O)[C@@H](N)CSSC[C@@H](C(=O)O)NC(=O)[C@H](CO)NC1=O` [J, L-Cysteinyl-D-Tyrosyl-D-Glutamyl-L-Phenylalanyl-L-Phenylalanyl-D-Tryptophyl-L-Lysyl-L-Threonyl-L-Phenylalanyl-L-Threonyl-L-Seryl-L-Cysteine Cyclic (1-12)-Disulfide] (H-C[dY][dE]FF[dW]KTFTSC-OH; disulfide 1-12), for which, in the experiment with growth hormone (setting [1]), the GH is reported as 128 ± 24. In addition, in the experiment with growth hormone (GH) (1000 μg/kg. sc, rats), the “GH, 2 Hours” value worked out at 311 ± 68 ng/mL and the “GH, 4 Hours” value stood at 179 ± 39 ng/mL. Moreover, in the experiment on insulin (100 μg/kg. s.c.), the Insulin is recorded as 263 ± 28 μU/ml. This compound displayed a Glucagon in the experiment on glucagon (100 μg/kg. s.c.) of 45 ± 4 pg/mL.
